Results taken from BigSolDB 2.1.

Nc1nc(N)nc(NC2CC2)n1
Conditions	solubility (mole fraction)
in acetic acid, 293.15 K	0.0128
in acetic acid, 298.15 K	0.0155
in acetic acid, 303.15 K	0.0187
in acetic acid, 308.15 K	0.0227
in acetic acid, 313.15 K	0.0275
in acetic acid, 318.15 K	0.033
in acetic acid, 323.15 K	0.0395
in acetic acid, 328.15 K	0.0471
in acetic acid, 333.15 K	0.0562
in acetone, 283.15 K	0.000486
in acetone, 288.15 K	0.000535
in acetone, 293.15 K	0.000617
in acetone, 298.15 K	0.00071
in acetone, 303.15 K	0.000805
in acetone, 308.15 K	0.00091
in acetone, 313.15 K	0.00103
in acetone, 318.15 K	0.00114
in acetone, 323.15 K	0.00127
in acrylic acid, 293.15 K	0.0341
in acrylic acid, 298.15 K	0.0413
in acrylic acid, 303.15 K	0.0492
in acrylic acid, 308.15 K	0.0581
in acrylic acid, 313.15 K	0.0683
in acrylic acid, 318.15 K	0.0785
in acrylic acid, 323.15 K	0.09
in acrylic acid, 328.15 K	0.101
in acrylic acid, 333.15 K	0.112
in ethanol, 283.15 K	0.000916
in ethanol, 288.15 K	0.00107
in ethanol, 293.15 K	0.00127
in ethanol, 298.15 K	0.00149
in ethanol, 303.15 K	0.00172
in ethanol, 308.15 K	0.00205
in ethanol, 313.15 K	0.00253
in ethanol, 318.15 K	0.00299
in ethanol, 323.15 K	0.00355
in isobutanol, 283.15 K	0.000396
in isobutanol, 288.15 K	0.000483
in isobutanol, 293.15 K	0.000594
in isobutanol, 298.15 K	0.000702
in isobutanol, 303.15 K	0.00084
in isobutanol, 308.15 K	0.000983
in isobutanol, 313.15 K	0.00115
in isobutanol, 318.15 K	0.00131
in isobutanol, 323.15 K	0.0015
in isopentanol, 283.15 K	0.000469
in isopentanol, 288.15 K	0.000592
in isopentanol, 293.15 K	0.000725
in isopentanol, 298.15 K	0.00087
in isopentanol, 303.15 K	0.00104
in isopentanol, 308.15 K	0.00127
in isopentanol, 313.15 K	0.00148
in isopentanol, 318.15 K	0.0018
in isopentanol, 323.15 K	0.00214
in isopropanol, 283.15 K	0.000465
in isopropanol, 288.15 K	0.000529
in isopropanol, 293.15 K	0.000638
in isopropanol, 298.15 K	0.000751
in isopropanol, 303.15 K	0.000915
in isopropanol, 308.15 K	0.00109
in isopropanol, 313.15 K	0.00125
in isopropanol, 318.15 K	0.00146
in isopropanol, 323.15 K	0.00172
in methanol, 283.15 K	0.00199
in methanol, 288.15 K	0.00224
in methanol, 293.15 K	0.00251
in methanol, 298.15 K	0.00279
in methanol, 303.15 K	0.0031
in methanol, 308.15 K	0.00344
in methanol, 313.15 K	0.00378
in methanol, 318.15 K	0.00416
in methanol, 323.15 K	0.00456
in n-butanol, 283.15 K	0.00073
in n-butanol, 288.15 K	0.000871
in n-butanol, 293.15 K	0.00104
in n-butanol, 298.15 K	0.00126
in n-butanol, 303.15 K	0.0015
in n-butanol, 308.15 K	0.00179
in n-butanol, 313.15 K	0.00217
in n-butanol, 318.15 K	0.00262
in n-butanol, 323.15 K	0.0031
in n-heptanol, 283.15 K	0.000235
in n-heptanol, 288.15 K	0.000322
in n-heptanol, 293.15 K	0.000422
in n-heptanol, 298.15 K	0.000556
in n-heptanol, 303.15 K	0.000737
in n-heptanol, 308.15 K	0.000957
in n-heptanol, 313.15 K	0.00124
in n-heptanol, 318.15 K	0.00162
in n-heptanol, 323.15 K	0.00213
in n-hexanol, 283.15 K	0.000534
in n-hexanol, 288.15 K	0.000661
in n-hexanol, 293.15 K	0.000816
in n-hexanol, 298.15 K	0.001
in n-hexanol, 303.15 K	0.00123
in n-hexanol, 308.15 K	0.00151
in n-hexanol, 313.15 K	0.00185
in n-hexanol, 318.15 K	0.00227
in n-hexanol, 323.15 K	0.00279
in n-pentanol, 283.15 K	0.000671
in n-pentanol, 288.15 K	0.000818
in n-pentanol, 293.15 K	0.000981
in n-pentanol, 298.15 K	0.00119
in n-pentanol, 303.15 K	0.00142
in n-pentanol, 308.15 K	0.00171
in n-pentanol, 313.15 K	0.00204
in n-pentanol, 318.15 K	0.00245
in n-pentanol, 323.15 K	0.00291
in n-propanol, 283.15 K	0.000809
in n-propanol, 288.15 K	0.000927
in n-propanol, 293.15 K	0.00113
in n-propanol, 298.15 K	0.00136
in n-propanol, 303.15 K	0.00163
in n-propanol, 308.15 K	0.00191
in n-propanol, 313.15 K	0.00237
in n-propanol, 318.15 K	0.00281
in n-propanol, 323.15 K	0.00327
in propionic acid, 278.15 K	0.00472
in propionic acid, 283.15 K	0.00562
in propionic acid, 288.15 K	0.00697
in propionic acid, 293.15 K	0.00847
in propionic acid, 298.15 K	0.0101
in propionic acid, 303.15 K	0.0123
in propionic acid, 308.15 K	0.0148
in propionic acid, 313.15 K	0.0177
in propionic acid, 318.15 K	0.0212
in sec-butanol, 283.15 K	0.000301
in sec-butanol, 288.15 K	0.00038
in sec-butanol, 293.15 K	0.00048
in sec-butanol, 298.15 K	0.000581
in sec-butanol, 303.15 K	0.000686
in sec-butanol, 308.15 K	0.000846
in sec-butanol, 313.15 K	0.000995
in sec-butanol, 318.15 K	0.0012
in sec-butanol, 323.15 K	0.00147
in water, 283.15 K	0.000931
in water, 288.15 K	0.00108
in water, 293.15 K	0.00125
in water, 298.15 K	0.00144
in water, 303.15 K	0.00166
in water, 308.15 K	0.00193
in water, 313.15 K	0.00221
in water, 318.15 K	0.00254
in water, 323.15 K	0.00293
